The text below walks through data of ChEMBL document CHEMBL1201862, “PubChem BioAssay data set” (2004).

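Each compound was tested at five concentrations against cells in 96-well plates for 48 hours. GI50 marks 50% less growth.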 Active and inactive are the calls of the source. Rule as the data show it: active = GI50 up to about 1.1 µM and inactive = higher. Where only a bound is given, the exact number is not on record here.

Common to all, as to test: DTP human tumour cell line panel, 48 h
The subject of assay [1] is CAKI-1.
The test system of assay [2] is HCT-116.
Assay [3] concerns SF-268.
Assay [4] relates to NCI-H226.
In assay [5] the test system is SN12C.
The subject of assay [6] is NCI-H460.
Assay [7] relates to OVCAR-5.
For assay [8], the system named is COLO 205.
For assay [9], the system named is UO-31.
In assay [10] the test system is OVCAR-4.
In assay [11] the test system is HCT-15.
Assay [12] deals with SNB-19.
The test system of assay [13] is TK-10.
Assay [14] concerns NCI-H23.
Assay [15] concerns A549.
For assay [16], the system named is KM12.
For assay [17], the system named is SK-OV-3.
The subject of assay [18] is SK-MEL-5.
The test system of assay [19] is LOX IMVI.

As for `O=C(/C=C\c1cccc2ccccc12)c1ccc(F)cc1`, the GI50 is 17.3 µM (inactive) in [1]; 13.9 µM (inactive) in [2]; 15 µM (inactive) in assay [3]; 35.9 µM (inactive) in assay [4]; 17.3 µM (inactive) in assay [5]; 17.8 µM (inactive) in assay [6]. The GI50 in assay [7] was 16.6 µM (inactive); in assay [8], 19 µM (inactive); in assay [9] it was 16.7 µM (inactive); in assay [10], 20.1 µM (inactive); in assay [11] it was 15.1 µM; in [12], 16.6 µM (inactive). Moreover, the GI50 is 15.3 µM (inactive) in assay [13]; 20 µM (inactive) in assay [14]; 26.8 µM (inactive) in [15]; 15 µM (inactive) in assay [16]; 23.5 µM (inactive) in [17]; 17.8 µM (inactive) in assay [18].

`CC(=O)C=C1Nc2ccccc2N1`: the GI50 in [1], in assay [2], in assay [3], in assay [4], in assay [5] and in assay [6] was > 100 µM (inactive) throughout. Moreover, the GI50 in assay [7] is > 100 µM (inactive); in assay [8] it was > 100 µM (inactive); in assay [9], > 100 µM (inactive); in assay [19], > 100 µM (inactive); in [10] it was > 100 µM (inactive); in [11], greater than 100 µM. The GI50 in assay [12], in assay [14], in assay [15], in assay [16] and in assay [18] was > 100 µM (inactive) throughout.

On to `OCC1OC(NO)C(O)C(O)C1O` (stereo unspecified), for which the GI50 in assay [1], in assay [2], in assay [3], in assay [4], in assay [5] and in [6] was > 100 µM (inactive) in each case. Also, the GI50 in assay [7] was > 100 µM (inactive); in assay [8], > 100 µM (inactive); in assay [19], > 100 µM (inactive); in [10], > 100 µM (inactive); in assay [11], greater than 100 µM; in [12], > 100 µM (inactive). Besides, the GI50 in assay [13], in assay [14], in assay [15], in assay [16] and in assay [18] was > 100 µM (inactive) each time.

In the case of `CCc1cccc(C)c1N1C(=O)C(=O)C(c2nc3ccccc3o2)C(=O)C1=O`, the GI50 in assay [1], in assay [2], in assay [3], in assay [4], in assay [5] and in [6] was > 100 µM (inactive) in each case. Besides, the GI50 in [7] is > 100 µM (inactive); in assay [8], > 100 µM (inactive); in assay [9] it was > 100 µM (inactive); in [10], > 100 µM (inactive); in assay [11], greater than 100 µM; in assay [12], > 100 µM (inactive). In addition, the GI50 in [13], in assay [14], in assay [15], in assay [16], in assay [17] and in [18] was > 100 µM (inactive) each time.

`CCCN/C(N)=N/C#N`: the GI50 was > 100 µM (inactive) in assay [1]; 67 µM (inactive) in assay [2]; 44.2 µM (inactive) in assay [3]; > 100 µM (inactive) in [4]; > 100 µM (inactive) in assay [5]; > 100 µM (inactive) in assay [6]. Further, the GI50 was > 100 µM (inactive) in assay [7]; 18 µM (inactive) in assay [8]; > 100 µM (inactive) in assay [9]; 37.1 µM (inactive) in [10]; 19.4 µM in [11]; > 100 µM (inactive) in [12]. In addition, the GI50 in [13], in assay [14], in [15], in assay [16], in assay [17] and in [18] was > 100 µM (inactive) each time.

Take `CN(C(=O)C12C3C4C1C1C4(C(=O)C45C6C7C4C4C5C6C74C)C3C12C)C(C)(C)C` (stereo unspecified): the GI50 was > 100 µM (inactive) in [1]; 52.7 µM (inactive) in assay [2]; > 100 µM (inactive) in assay [3]; 72.3 µM (inactive) in assay [4]; > 100 µM (inactive) in [5]; 54.6 µM (inactive) in [6]. In addition, the GI50 is 88.1 µM (inactive) in assay [7]; 35.4 µM (inactive) in assay [8]; 38.5 µM (inactive) in [9]; 48.1 µM (inactive) in assay [19]; 28.3 µM in assay [11]; 69.5 µM (inactive) in assay [12]. In addition, the GI50 was > 100 µM (inactive) in assay [13]; 70.5 µM (inactive) in assay [14]; 52.7 µM (inactive) in assay [15]; 78.7 µM (inactive) in assay [16]; 90.4 µM (inactive) in [17]; 31.6 µM (inactive) in assay [18].

As to `C[Si](C)(C)CN1C(=O)c2ccccc2C1(O)c1ccccc1` (stereo unspecified), the GI50 in assay [1] is 46.1 µM (inactive); in assay [2], 48 µM (inactive); in [3], 98.4 µM (inactive); in assay [4], > 100 µM (inactive); in assay [5], > 89.3 µM (inactive); in assay [6], 65.6 µM (inactive). Besides, the GI50 in [7] is > 100 µM (inactive); in assay [8], 92.7 µM (inactive); in assay [9], 30.5 µM (inactive); in assay [19], 49.4 µM (inactive); in assay [10], 70.6 µM (inactive); in [11] it was greater than 68.4 µM. For the same molecule, the GI50 in [12] was > 100 µM (inactive); in [13], > 100 µM (inactive); in assay [14], 50.6 µM (inactive); in assay [15] it was 40.4 µM (inactive); in assay [16], 59.7 µM (inactive); in assay [18] it was 46.6 µM (inactive).

Turning to `O=C(Cn1cc(I)c(C(=O)NCC(O)CO)n1)NCC(O)CO` (stereo unspecified), the GI50 in assay [2], in assay [3], in assay [4], in assay [5], in assay [6] and in [8] was > 100 µM (inactive) throughout. The GI50 in assay [9] was > 100 µM (inactive); in [19] it was > 100 µM (inactive); in [10] it was > 100 µM (inactive); in [11], greater than 100 µM; in assay [12] it was > 100 µM (inactive); in assay [13], > 100 µM (inactive). Further, the GI50 in [14], in assay [15], in assay [16] and in [17] was > 100 µM (inactive) throughout.

On to `CC[N+](CC)(CC)Cc1cc2ccccc2n1C(=O)OC`, for which the GI50 in assay [1], in [2], in assay [3], in assay [4], in [6] and in [7] was > 100 µM (inactive) in each case. For the same molecule, the GI50 in assay [8] was > 100 µM (inactive); in [9], > 100 µM (inactive); in [10], > 100 µM (inactive); in assay [11] it was greater than 100 µM; in assay [12], > 100 µM (inactive); in assay [13], > 100 µM (inactive). Also, the GI50 in assay [14], in [15], in assay [16] and in assay [18] was > 100 µM (inactive) each time.
